Tests used:
Italian ryegrass = experiment: Test C postemergence; type: in vivo, Lolium multiflorum
Procedure, shortened: (§1)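 Preemergence: seeds sown in a loam soil–sand blend and sprayed with test chemical in a non-phytotoxic solvent mixture containing surfactant. Postemergence: plants at 2 to 18 cm (1- to 4-leaf stage) in peat-based medium, treated with the same formulation. Greenhouse 13 to 15 days, then visual rating 0 (no effect) to 100 (complete control).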

soybean = experiment: Test C postemergence; type: in vivo, Glycine max
Procedure, shortened: as §1

pigweed [1] = experiment: Test A postemergence; type: in vivo, Amaranthus retroflexus; details: 0 to 100 scale where 0 is no effect and 100 is complete control; for Plant response rating, Pigweed: 500 g ai/ha
Procedure, shortened: (§2)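 Pre- and postemergence greenhouse screen. Soil: loam + sand. Spray carrier: solvent mixture, non-phytotoxic, with surfactant. Post timing at 1–2 leaves, height 2–10 cm. Readout: visual injury on a 0–100 scale roughly 10 days after application, untreated plants as reference.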

giant foxtail = experiment: Test C postemergence; type: in vivo, Setaria faberii; details: for Foxtail, Giant plant response rating / Plant response rating, Foxtail, Giant: scale 0 to 100 (0 no effect, 100 complete control)
Procedure, shortened: as §1

barnyardgrass = experiment: Test C postemergence; type: in vivo, Echinochloa crus-galli; details: for Barnyardgrass plant response rating / Plant response rating, Barnyardgrass: scale 0 to 100 (0 no effect, 100 complete control)
Procedure, shortened: as §1

corn [2] = experiment: Test C postemergence; type: in vivo, Zea mays; details: for Corn plant response rating / Plant response rating, Corn: scale 0 to 100 (0 no effect, 100 complete control)
Procedure, shortened: as §1

corn [3] = experiment: Test A postemergence; type: in vivo, Zea mays; details: 0 to 100 scale where 0 is no effect and 100 is complete control
Procedure, shortened: as §2

velvetleaf [4] = experiment: Test A postemergence; type: in vivo, Abutilon theophrasti; details: 0 to 100 scale where 0 is no effect and 100 is complete control; for Plant response rating, Velvetleaf: 500 g ai/ha
Procedure, shortened: as §2

morningglory = experiment: Test A postemergence; type: in vivo, Ipomoea spp.; details: 0 to 100 scale where 0 is no effect and 100 is complete control; for Plant response rating, Morningglory: 500 g ai/ha
Procedure, shortened: as §2

waterhemp = experiment: Test C postemergence; type: in vivo, Amaranthus rudis
Procedure, shortened: as §1

large (Lg) crabgrass [5] = experiment: Test A preemergence; type: in vivo, Digitaria sanguinalis; details: for Plant response rating, Crabgrass, Large: 125 g ai/ha; for Crabgrass, Large plant response rating: 500 g ai/ha
Procedure, shortened: as §2

velvetleaf [6] = experiment: Test A preemergence; type: in vivo, Abutilon theophrasti
Procedure, shortened: as §2

wild oat = experiment: Test C postemergence; type: in vivo, Avena fatua
Procedure, shortened: as §1

large (Lg) crabgrass [7] = experiment: Test A postemergence; type: in vivo, Digitaria sanguinalis; details: 0 to 100 scale where 0 is no effect and 100 is complete control
Procedure, shortened: as §2

johnsongrass = experiment: Test C postemergence; type: in vivo, Sorghum halepense; details: for Johnsongrass plant response rating / Plant response rating, Johnsongrass: scale 0 to 100 (0 no effect, 100 complete control)
Procedure, shortened: as §1

pigweed [8] = experiment: Test A preemergence; type: in vivo, Amaranthus retroflexus; details: for Pigweed plant response rating: 500 g ai/ha
Procedure, shortened: as §2

kochia = experiment: Test C postemergence; type: in vivo, Kochia scoparia; details: for Kochia plant response rating / Plant response rating, Kochia: scale 0 to 100 (0 no effect, 100 complete control)
Procedure, shortened: as §1

pigweed [9] = experiment: Test C postemergence; type: in vivo, Amaranthus retroflexus
Procedure, shortened: as §1

[10] = Postemergence, 31 g ai/ha, scale 0 to 100 (0 no effect, 100 complete control), 13 to 15 days
[11] = Postemergence, 62 g ai/ha, scale 0 to 100 (0 no effect, 100 complete control)
[12] = 16 g ai/ha, postemergence, visual rating, 13 to 15 days
[13] = Postemergence, 31 g ai/ha, 13 to 15 days
[14] = 0 to 100 scale where 0 is no effect and 100 is complete control
[15] = 0 to 100 scale, 0 no effect, 100 complete control, approx. 10 days
[16] = 125 g ai/ha, 0 to 100 scale where 0 is no effect and 100 is complete control
[17] = 16 g ai/ha, postemergence, 0 is no effect, 100 is complete control
[18] = 31 g ai/ha, postemergence, visual rating, scale 0 to 100 (0 no effect, 100 complete control), 13 to 15 days
[19] = 125 g ai/ha, postemergence, visual rating, scale 0 to 100 (0 no effect, 100 complete control)
[20] = 31 g ai/ha, postemergence, visual rating, 13 to 15 days
[21] = 125 g ai/ha, postemergence, visual rating

FC(F)Oc1cnn(-c2ccccc2Oc2ncc(Cl)cn2)c1 [Compound 98] was tested. Which “Plant response rating (0 to 100), Ryegrass, Italian” value (Italian ryegrass; 125 g ai/ha, postemergence) did it give?
Its value is 25.

And the “Plant response rating, Ryegrass, Italian” value (Italian ryegrass; [10])?
The value was 0.

What about the “Plant response rating, Ryegrass, Italian” value (Italian ryegrass; [11]) of the same compound?
The value was 5.

What about the “Plant response rating (0 to 100), Soybean” value (soybean; 125 g ai/ha, postemergence) of the same compound?
The value was 90.

And the “Plant response rating, Soybean” value (soybean; [10])?
The value was 40.

What about the “Plant response rating, Soybean” value (soybean; [11]) of the same compound?
The value was 60.

What about the “Plant response rating, Pigweed” value (pigweed [1]) of the same compound?
The value was 100.

What about the “Foxtail, Giant plant response rating” value (giant foxtail; [12]) of the same compound?
Its value is 5.

What about the “Plant response rating (0 to 100), Foxtail, Giant” value (giant foxtail; 125 g ai/ha, postemergence) of the same compound?
Its value is 10.

What about the “Plant response rating, Foxtail, Giant” value (giant foxtail; [13]) of the same compound?
Its value is 5.

What about the “Plant response rating, Foxtail, Giant” value (giant foxtail; Postemergence, 62 g ai/ha) of the same compound?
The value was 5.

And the “Barnyardgrass plant response rating” value (barnyardgrass; [12])?
Its value is 5.

And the “Plant response rating (0 to 100), Barnyardgrass” value (barnyardgrass; 125 g ai/ha, postemergence)?
The value was 15.

And the “Plant response rating, Barnyardgrass” value (barnyardgrass; [13])?
The value was 5.

What about the “Plant response rating, Barnyardgrass” value (barnyardgrass; Postemergence, 62 g ai/ha) of the same compound?
The value was 10.

And the “Corn plant response rating” value (corn [2]; [12])?
The value was 5.

What about the “Plant response rating (0 to 100), Corn” value (corn [2]; 125 g ai/ha, postemergence) of the same compound?
The value was 20.

And the “Plant response rating, Corn” value (corn [2]; [13])?
Its value is 10.

And the “Plant response rating, Corn” value (corn [2]; Postemergence, 62 g ai/ha)?
The value was 5.

What about the “Plant response rating, Corn” value (corn [3]; 125 g ai/ha) of the same compound?
The value was 40.

What about the “Plant response rating, Corn” value (corn [3]; 500 g ai/ha) of the same compound?
The value was 70.

What about the “Plant response rating, Velvetleaf” value (velvetleaf [4]) of the same compound?
The value was 100.

And the “Plant response rating, Morningglory” value (morningglory)?
The value was 100.

And the “Plant response rating (0 to 100), Waterhemp” value (waterhemp; 125 g ai/ha, postemergence)?
Its value is 85.

And the “Plant response rating, Waterhemp” value (waterhemp; [10])?
Its value is 50.

And the “Plant response rating, Waterhemp” value (waterhemp; [11])?
Its value is 80.

And the “Plant response rating, Crabgrass, Large” value (large (Lg) crabgrass [5]; [14])?
Its value is 100.

What about the “Crabgrass, Large plant response rating” value (large (Lg) crabgrass [5]; [15]) of the same compound?
The value was 100.

What about the “Plant response rating, Velvetleaf” value (velvetleaf [6]; [16]) of the same compound?
Its value is 90.

What about the “Plant response rating (0 to 100), Oat, Wild” value (wild oat; 125 g ai/ha, postemergence) of the same compound?
Its value is 20.

What about the “Plant response rating, Oat, Wild” value (wild oat; [10]) of the same compound?
Its value is 5.

And the “Plant response rating, Oat, Wild” value (wild oat; [11])?
The value was 10.

And the “Plant response rating, Crabgrass, Large” value (large (Lg) crabgrass [7]; 125 g ai/ha)?
Its value is 80.

And the “Plant response rating, Crabgrass, Large” value (large (Lg) crabgrass [7]; 500 g ai/ha)?
Its value is 100.

What about the “Johnsongrass plant response rating” value (johnsongrass; [12]) of the same compound?
Its value is 0.

What about the “Plant response rating (0 to 100), Johnsongrass” value (johnsongrass; 125 g ai/ha, postemergence) of the same compound?
Its value is 10.

And the “Plant response rating, Johnsongrass” value (johnsongrass; [13])?
The value was 0.

And the “Plant response rating, Johnsongrass” value (johnsongrass; Postemergence, 62 g ai/ha)?
Its value is 5.

And the “Plant response rating, Pigweed” value (pigweed [8]; [16])?
The value was 100.

And the “Pigweed plant response rating” value (pigweed [8]; [15])?
Its value is 100.

What about the “Kochia plant response rating” value (kochia; [12]) of the same compound?
Its value is 70.

And the “Plant response rating (0 to 100), Kochia” value (kochia; 125 g ai/ha, postemergence)?
The value was 98.

And the “Plant response rating, Kochia” value (kochia; [13])?
Its value is 80.

What about the “Plant response rating, Kochia” value (kochia; Postemergence, 62 g ai/ha) of the same compound?
The value was 90.

What about the “Plant response rating (0 to 100), Pigweed” value (pigweed [9]; 125 g ai/ha, postemergence) of the same compound?
Its value is 75.

And the “Plant response rating, Pigweed” value (pigweed [9]; [10])?
Its value is 75.

What about the “Plant response rating, Pigweed” value (pigweed [9]; [11]) of the same compound?
Its value is 75.

What does the source list for FC(F)c1cccc(Oc2ncc(Br)cn2)c1-n1cc(C(F)(F)F)cn1 [Compound 163]?
Plant response rating (0 to 100), Ryegrass, Italian (Italian ryegrass; [17]): 0; Ryegrass, Italian plant response rating (Italian ryegrass; [18]): 0; Plant response rating, Ryegrass, Italian (Italian ryegrass; [19]): 10; Plant response rating, Ryegrass, Italian (Italian ryegrass; [11]): 0; Plant response rating (0 to 100), Soybean (soybean; [17]): 35; Soybean plant response rating (soybean; [18]): 50; Plant response rating, Soybean (soybean; [19]): 75; Plant response rating, Soybean (soybean; [11]): 80; Pigweed plant response rating (pigweed [1]; 125 g ai/ha): 100; Plant response rating, Pigweed (pigweed [1]): 100; Plant response rating (0 to 100), Foxtail, Giant (giant foxtail; [17]): 5; Foxtail, Giant plant response rating (giant foxtail; [20]): 5; Plant response rating, Foxtail, Giant (giant foxtail; [21]): 10; Plant response rating, Foxtail, Giant (giant foxtail; Postemergence, 62 g ai/ha): 10; Plant response rating (0 to 100), Barnyardgrass (barnyardgrass; [17]): 5; Barnyardgrass plant response rating (barnyardgrass; [20]): 5; Plant response rating, Barnyardgrass (barnyardgrass; [21]): 5; Plant response rating, Barnyardgrass (barnyardgrass; Postemergence, 62 g ai/ha): 5; Plant response rating (0 to 100), Corn (corn [2]; [17]): 5; Corn plant response rating (corn [2]; [20]): 5; Plant response rating, Corn (corn [2]; [21]): 10; Plant response rating, Corn (corn [2]; Postemergence, 62 g ai/ha): 10; Corn plant response rating (corn [3]; 125 g ai/ha): 30; Plant response rating, Corn (corn [3]; 500 g ai/ha): 50; Velvetleaf plant response rating (velvetleaf [4]; 125 g ai/ha): 100; Plant response rating, Velvetleaf (velvetleaf [4]): 100; Morningglory plant response rating (morningglory; 125 g ai/ha): 90; Plant response rating, Morningglory (morningglory): 100; Plant response rating (0 to 100), Waterhemp (waterhemp; [17]): 75; Waterhemp plant response rating (waterhemp; [18]): 75; Plant response rating, Waterhemp (waterhemp; [19]): 80; Plant response rating, Waterhemp (waterhemp; [11]): 85; Plant response rating, Crabgrass, Large (large (Lg) crabgrass [5]; [14]): 100; Crabgrass, Large plant response rating (large (Lg) crabgrass [5]; [14]): 100; Velvetleaf plant response rating (0 to 100 scale) (velvetleaf [6]; 125 g ai/ha): 20; Velvetleaf plant response rating (velvetleaf [6]; 500 g ai/ha, 0 to 100 scale where 0 is no effect and 100 is complete control): 100; Plant response rating (0 to 100), Oat, Wild (wild oat; [17]): 0; Oat, Wild plant response rating (wild oat; [18]): 5; Plant response rating, Oat, Wild (wild oat; [19]): 20; Plant response rating, Oat, Wild (wild oat; [11]): 10; Crabgrass, Large plant response rating (large (Lg) crabgrass [7]; 125 g ai/ha): 30; Plant response rating, Crabgrass, Large (large (Lg) crabgrass [7]; 500 g ai/ha): 90; Plant response rating (0 to 100), Johnsongrass (johnsongrass; [17]): 5; Johnsongrass plant response rating (johnsongrass; [20]): 5; Plant response rating, Johnsongrass (johnsongrass; [21]): 10; Plant response rating, Johnsongrass (johnsongrass; Postemergence, 62 g ai/ha): 5; Pigweed plant response rating (0 to 100 scale) (pigweed [8]; 125 g ai/ha): 100; Pigweed plant response rating (pigweed [8]; [14]): 100; Plant response rating (0 to 100), Kochia (kochia; [17]): 90; Kochia plant response rating (kochia; [20]): 90; Plant response rating, Kochia (kochia; [21]): 100; Plant response rating, Kochia (kochia; Postemergence, 62 g ai/ha): 100; Plant response rating (0 to 100), Pigweed (pigweed [9]; [17]): 80; Pigweed plant response rating (pigweed [9]; [18]): 85; Plant response rating, Pigweed (pigweed [9]; [19]): 90; Plant response rating, Pigweed (pigweed [9]; [11]): 90

From patent US9695155B2, “Herbicidal substituted pyrimidinyloxy benzene compounds” (E. I. DU PONT DE NEMOURS AND COMPANY, priority 2013, dated 2017)
